Results published in patent publication US12655472B2, “Microbe detection method using fish analysis” (priority 2020, dated 2026).

Tests used:
[1] = system: E. coli K-12; assay: Antibiotic susceptibility evaluation through FISH analysis (ratio of test microorganisms after about 1 hour culturing); format: cell-based
Protocol: (§1) In this example, a total of two experiments were conducted on each of E. coli K-12 bacteria as test microorganisms having antibiotic susceptibility, and E. coli ER7 bacteria as test microorganisms having antibiotic resistance, and each group was set to include E. faecalis bacteria having resistance to Cefotaxime.
(§2) The number or ratio of initial microorganisms in the first microbial group, the second microbial group, and the third microbial group was set identically.
(§3) In an embodiment, E. coli K-12 bacteria, antibiotic-resistant E. coli ER7 bacteria, and E. faecalis resistant to cefotaxime were used, and each strain was cultured up to OD 600=0.5 to obtain a sample containing the test microorganisms. On the other hand, after treating the sample with antibiotics, the amount of the test microorganisms was quantified by imaging at OD 600. In this case, the imaging process was performed by centrifugation at 3,000 g for 3 min, concentrating the sample 10-fold and fixing the same on a glass substrate coated with Vectabond.
(§4) To fix bacterial samples, a 50:1 solution of acetone and Vectabond was dropped onto a sample dish. Next, the sample dish was incubated at room temperature for 5 minutes, and washed 2 to 3 times with tertiary water, and then the water was completely removed therefrom. Thereafter, the test microorganisms samples of Example 6 were dropped on the coated sample dish, and incubated at room temperature for 30 minutes, and the remaining sample was washed three times. Next, a 3.7% formaldehyde solution was dropped on the sample dish on which the sample was fixed, and then the fixation was performed for 30 minutes at room temperature. Afterwards, it was washed 2 to 3 times with nuclease-free tertiary water. […] Finally, after immersing the sample in a 2×SSC solution diluted with nuclease-free tertiary […], a fluorescence image of the sample was acquired using a confocal fluorescence microscope.

[2] = system: E. faecalis; assay: as above; format: cell-based; conditions: first microbial group treated and cultured with antibiotics
Protocol: as §1, §2, §3, §4

CO/N=C(\C(=O)N[C@@H]1C(=O)N2C(C(=O)O)=C(COC(C)=O)CS[C@H]12)c1csc(N)n1 [cefotaxime]
number of population of E. coli K-12 ([1]; first microbial group treated and cultured with antibiotics, about 1 hour): rapidly reduced | ratio of E. coli and E. faecalis ([1]; first microbial group, mixed E. coli and E. faecalis sample treated with antibiotic and cultured for 1 hour): ratio of E. coli and E. faecalis changed | growth of E. faecalis [2]: continued to grow
